Results: BindingDB's records for doi:10.1021/jm0004906 (Glaxosmithkline, 2001)

Each compound was assayed against T1, Gag-Pol polyprotein [588-1027]/[588-1147] (Human immunodeficiency virus 1, UniProt P04585) (assay: HIV-1 RT Assay). Settings: not given.
T1 construct: 588-1027; 588-1147
Description: The IC50 of reverse transcriptase is the concentration that inhibits 50% of recombinant HIV-1 RT RNA-directed DNA polymerase activity in vitro.

Compound	IC50
N#Cc1c(N)cccc1[S+]([O-])c1ccccc1Br (stereo not given) [2-amino-6-[(2-bromobenzene)sulfinyl]benzonitrile]	> 19 µM
Cc1ccccc1[S+]([O-])c1cccc(N)c1C#N (stereo not given) [2-amino-6-[(2-methylbenzene)sulfinyl]benzonitrile]	> 21 µM
N#Cc1cccc([S+]([O-])c2cccc(N)c2C#N)c1 (stereo not given) [2-amino-6-[(3-cyanobenzene)sulfinyl]benzonitrile]	> 15 µM
N#Cc1c(N)cccc1[S+]([O-])c1ccc(Br)cc1 (stereo not given) [2-amino-6-[(4-bromobenzene)sulfinyl]benzonitrile]	> 21 µM
N#Cc1c(N)cccc1S(=O)(=O)c1ccc(Br)cc1 [2-amino-6-[(4-bromobenzene)sulfonyl]benzonitrile]	> 14 µM
N#Cc1ccc([S+]([O-])c2cccc(N)c2C#N)cc1 (stereo not given) [2-amino-6-[(4-cyanobenzene)sulfinyl]benzonitrile]	> 23 µM
N#Cc1ccc(S(=O)(=O)c2cccc(N)c2C#N)cc1 [2-amino-6-[(4-cyanobenzene)sulfonyl]benzonitrile]	> 18 µM
COc1ccc([S+]([O-])c2cccc(N)c2C#N)cc1 (stereo not given) [2-amino-6-[(4-methoxybenzene)sulfinyl]benzonitrile]	> 20 µM
Cc1ccc([S+]([O-])c2cccc(N)c2C#N)cc1 (stereo not given) [2-amino-6-[(4-methylbenzene)sulfinyl]benzonitrile]	> 21 µM
N#Cc1c(N)cccc1[S+]([O-])c1cccc(C(F)(F)F)c1 (stereo not given) [2-amino-6-{[3-(trifluoromethyl)benzene]sulfinyl}benzonitrile]	> 22 µM

Same assay, conditions: pH 8

Compound	IC50
N#Cc1c(N)cccc1Sc1ccccc1Br [2-amino-6-[(2-bromophenyl)sulfanyl]benzonitrile]	> 21 µM
N#Cc1c(N)cccc1Sc1cccc(N)c1 [2-amino-6-[(3-aminophenyl)sulfanyl]benzonitrile]	> 23 µM
N#Cc1ccc(Sc2cccc(N)c2C#N)cc1 [2-amino-6-[(4-cyanophenyl)sulfanyl]benzonitrile]	> 19 µM
COc1ccc(Sc2cccc(N)c2C#N)cc1 [2-amino-6-[(4-methoxyphenyl)sulfanyl]benzonitrile]	> 17 µM
O=[N+]([O-])c1ccccc1Sc1ccccc1[N+](=O)[O-] [Bisnitrophenylsulfide]	> 20 µM
